These results are taken from ChEMBL document CHEMBL1201862, “PubChem BioAssay data set” (2004).

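Interpolation was linear, between the two tested concentrations surrounding the appropriate level; five concentrations were tested over 48 hours in 96-well plates. At the GI50, growth is halved.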 The source made the active and inactive calls. Rule as the data show it: active = GI50 up to about 1.1 µM and inactive = higher.

Some test systems named below: HOP-18; RXF 631; DLD-1; MCF7; BT-549; Hs-578T; MDA-MB-435; T47D; MDA-N.
Common to all, as to experiment: NCI anticancer screen, dose series, 48 h

For the molecule `O=c1c2ccccc2nc(-c2ccc(Br)cc2)n1NC1OC(CO)C(O)C(O)C1O` (stereo unspecified), the GI50 with HOP-18 and in the assay with RXF 631 was > 100 µM (inactive) each time.

In the case of `CC(=O)/C=C1\CC(=O)N(C)c2ccccc2N1`, the GI50 with DLD-1 was 2.86 µM (inactive).

With `S=P1(N2CCCCC2)Oc2ccc3ccccc3c2-c2c(ccc3ccccc23)O1`, the GI50 in the assay on DLD-1 is 91.2 µM (inactive); in the assay with HOP-18 it was > 71.8 µM (inactive); with MCF7 it was > 85.3 µM (inactive).

As for `COc1ccc(C2C3C(=O)C=CC(=O)C3[C@@H]2C)cc1OC` (stereo partly specified), the GI50 with DLD-1, in the assay on HOP-18 and with RXF 631 was > 100 µM (inactive) each time.

With `C=C1COC(/C=C(\C)CC/C=C(\C)CCl)C1` (stereo unspecified), the GI50 in the assay with DLD-1 is > 100 µM (inactive).

On to `COc1ccc(/N=C\c2cc(OC)c(OC)c(OC)c2)cc1`, for which the GI50 in the assay with DLD-1 and with HOP-18 was > 100 µM (inactive) throughout.

Take `CC(C)(C)c1ccc(C(O)c2ccc(C(C)(C)C)cc2)cc1`: the GI50 with DLD-1 is 14.6 µM (inactive); in the assay on HOP-18, 17.5 µM (inactive).

Regarding `CN(C)CC1CCCC1=O` (stereo unspecified), the GI50 with BT-549 was 4.97 µM (inactive); in the assay with DLD-1 it was 0.195 µM (active); in the assay on HOP-18, 1.73 µM (inactive); with Hs-578T, 17.9 µM (inactive); in the assay with MCF7 it was 0.408 µM (active); in the assay with MDA-MB-435, 4.39 µM (inactive). Further, the GI50 was 0.138 µM (active) with RXF 631 and 3.65 µM (inactive) in the assay with T47D.

`O=C1NC2(CCCCC2)C2CCCCC(O)C12` (stereo unspecified): the GI50 in the assay with DLD-1 and in the assay on RXF 631 was > 100 µM (inactive) throughout.

On to `O=C1N(C2CCCCC2)CC12CCCCC2`, for which the GI50 with HOP-18 is 94.6 µM (inactive); in the assay on RXF 631, > 100 µM (inactive).

As for `CSC(=N)N1N=C2/C(=C/c3ccccc3)CCC[C@H]2[C@H]1c1ccccc1`, the GI50 is 3.48 µM (inactive) in the assay with DLD-1 and 1.07 µM (active) in the assay with HOP-18.

Turning to `CCOC(=O)CC[C@H](NC(=O)c1nc[nH]c1/N=N/N(C)C)C(=O)OCC`, in the assay on DLD-1, the GI50 was > 100 µM (inactive).

As for `CN(C)/N=C(/c1nc2ccc(Cl)cc2nc1O)C(O)c1ccc(C(O)/C(=N\N(C)C)c2nc3ccc(Cl)cc3nc2O)cc1` (stereo unspecified), the GI50 in the assay on DLD-1 is > 100 µM (inactive); with RXF 631, 91.4 µM (inactive).

On to `O=C1CCC2COc3ccc(O)c1c32` (stereo unspecified), for which, in the assay with HOP-18, the GI50 was > 100 µM (inactive).

`COC(=O)c1ccc(NC(=O)c2cc(OC)c(OC)c(OC)c2)cc1`: the GI50 in the assay on DLD-1 is 4.69 µM (inactive); with HOP-18, 49.4 µM (inactive).

With `COc1ccc(OC)c(/C=C/NC=O)c1`, the GI50 in the assay with DLD-1 and with HOP-18 was > 100 µM (inactive) throughout.

Consider `Cc1ccccc1N1C(=O)C2C=CC(n3[nH]c(=O)n(Cc4ccccc4)c3=O)CC2C1=O` (stereo unspecified), for which the GI50 in the assay with DLD-1 and in the assay on HOP-18 was > 100 µM (inactive) throughout.

In the case of `CC(=O)OC1/C=C(\C)C(OC(C)=O)C/C=C(/C)CCC2C(/C=C/C1=O)C2(C)C` (stereo unspecified), the GI50 in the assay on DLD-1, in the assay on HOP-18 and with RXF 631 was > 100 µM (inactive) each time.

Take `c1ccc2c(c1)nnn2CNc1ccc(N2CCOCC2)cc1`: the GI50 in the assay with DLD-1 and in the assay with HOP-18 was > 100 µM (inactive) in each case.

For `COc1cc(C2C(C(=O)NCc3ccccc3)=C(C)NC(C)=C2C(=O)NCc2ccccc2)ccc1O`, the GI50 with RXF 631 was 27.3 µM (inactive).

As to `O=C1NC2OCC(O)C(O1)C2O` (stereo unspecified), the GI50 in the assay on DLD-1, with HOP-18 and in the assay with RXF 631 was > 100 µM (inactive) each time.

With `C=C1CCC2[C@@H](CCC3[C@]2(C)CCC[C@]3(C)C(=O)OC)C1CCO` (stereo partly specified), the GI50 in the assay with DLD-1 is 14.2 µM (inactive); in the assay on HOP-18 it was 16 µM (inactive).

Consider `CCC1=CCN(c2ccc(C)cc2)OC1c1ccc(OC)cc1` (stereo unspecified), for which the GI50 is 58.1 µM (inactive) with DLD-1 and 52.4 µM (inactive) in the assay on RXF 631.

Consider `CCCCc1c2cnccc2c(CCCC)c2c1[nH]c1ccccc12`, for which the GI50 with DLD-1 was 9.1 µM (inactive); with HOP-18 it was 3.59 µM (inactive).

As for `COc1c2c(nc3ccccc13)-c1cc3c(c(=O)n1C2)COC(=O)C3(O)CC(=O)N1CCOCC1` (stereo unspecified), the GI50 was 5.62 µM (inactive) with BT-549; 40.4 µM (inactive) in the assay with DLD-1; 18 µM (inactive) with HOP-18; 12.6 µM (inactive) with Hs-578T; 1.06 µM (active) in the assay with MCF7; 18.7 µM (inactive) in the assay on MDA-MB-435. Moreover, the GI50 in the assay on MDA-N is 19.5 µM (inactive); in the assay with T47D, 3.63 µM (inactive).

Regarding `C[C@]12CC[C@H](OC3CCCCO3)CC1=CC[C@@H]1C2CC[C@]2(C)/C(=N/OCCC#N)CCC12` (stereo partly specified), the results for the GI50 with DLD-1, in the assay on HOP-18 and in the assay with RXF 631 were > 100 µM (inactive), > 100 µM (inactive) and 33.6 µM (inactive), respectively.

As for `O=C(N/N=C1\C(=O)Nc2ccc(Br)cc21)/C(O)=C/C(=O)c1ccc(Cl)cc1`, the GI50 was 35.5 µM (inactive) in the assay with BT-549; 30.2 µM (inactive) in the assay on Hs-578T; 44.4 µM (inactive) with MCF7; 39.9 µM (inactive) with MDA-MB-435; 39.3 µM (inactive) in the assay on MDA-N; 36.6 µM (inactive) with T47D.

For `C=Cc1cnc([N+](=O)[O-])n1C`, the GI50 is 46.3 µM (inactive) in the assay with BT-549; 35.7 µM (inactive) in the assay on Hs-578T; 59 µM (inactive) in the assay on MCF7; 60.8 µM (inactive) in the assay with MDA-MB-435; 40 µM (inactive) in the assay with MDA-N; 46.5 µM (inactive) in the assay on T47D.

Regarding `COc1ccc(-c2csc3c2[N+]2(C)C=CC=C2C3N2CCCC2)cc1` (stereo unspecified), the GI50 is 8.2 µM (inactive) in the assay with BT-549; 15.7 µM (inactive) in the assay with Hs-578T; 29 µM (inactive) in the assay on MCF7; 3.13 µM (inactive) with MDA-MB-435; 7.6 µM (inactive) with MDA-N; 16.3 µM (inactive) with T47D.

On to `COc1ccc2c(c1)OCCC1=C2SCC2(C)CCN=C12` (stereo unspecified), for which the GI50 was > 100 µM (inactive) in the assay with DLD-1 and 48.3 µM (inactive) with HOP-18.

Consider `CCOc1ccc(NC(=O)C(=O)CC(=O)c2c(C)[n+]([O-])c3ccccc3[n+]2[O-])cc1`, for which the GI50 was 24.9 µM (inactive) with HOP-18 and > 100 µM (inactive) in the assay on RXF 631.

For the molecule `COc1cccc(/C=C2\C(=O)N(C(=O)Cc3ccccc3)N=C2C)c1`, the results for the GI50 with DLD-1 and in the assay with HOP-18 were > 100 µM (inactive) and 12.4 µM (inactive), respectively.

Turning to `CCOC(=O)C(NC(=O)N(C1=NCC(C)S1)C1CCCCC1)(OC)C(F)(F)F` (stereo unspecified), the GI50 was 32.3 µM (inactive) in the assay on BT-549; 42.5 µM (inactive) in the assay on Hs-578T; 23.4 µM (inactive) in the assay on MCF7; 32.2 µM (inactive) in the assay with MDA-MB-435; 30.9 µM (inactive) in the assay with MDA-N; 32.5 µM (inactive) with T47D.

Take `CCC1=C(C(C)=O)[C@@H]2CCCCC(C(=O)OC)[C@@H]2C1=O` (stereo partly specified): the GI50 with DLD-1 is > 100 µM (inactive); in the assay with HOP-18 it was 47 µM (inactive).

For `N#CC1(c2nc3ccccc3o2)C(=O)C(=O)N(C2C3CC4CC(C3)CC2C4)C(=O)C1=O` (stereo unspecified), in the assay on HOP-18, the GI50 was > 100 µM (inactive).

With `Cc1ccc(N2Cc3c(ccc4ccccc34)OP2(=O)Oc2ccc(Cl)c(C)c2)cc1` (stereo unspecified), the figures for the GI50 in the assay with DLD-1, in the assay on HOP-18 and in the assay on MCF7 were > 41.8 µM (inactive), > 61.1 µM (inactive) and 18.4 µM (inactive), respectively.

Regarding `CC(C)C(=O)/C=C/c1ccc(Br)cc1`, in the assay on DLD-1, the GI50 is 7.31 µM (inactive).
